Seven compounds from ChEMBL document CHEMBL1141260, “Biologically active indole alkaloids from Kopsia arborea” (J Nat Prod, 2007) can be followed below.

In brackets after ≈: the same amount, converted by molar mass.

What all share (assay type): functional, cell-based
For one assay, the system named is KB. As to the kind of experiment: Cytotoxicity against vincristine-sensitive human KB cells.
Assay [1] can be described thus: Cytotoxicity against vincristine-resistant human KB/VJ300 cells in presence of 0.1 ug/mL vincristine.
Assay [2] is described as follows: Cytotoxicity against vincristine-resistant human KB/VJ300 cells.
The next assay concerns Jurkat. Briefly: Cytotoxicity against human Jurkat cells.

A word on the IC50: it is the point on the concentration scale where inhibition reaches its midpoint.

For `C=C1C2=Nc3ccccc3[C@@]23CCN2C/C(=C/C)[C@@H]1C[C@H]23` [VALPARICINE], the IC50 amounted to 3.6 µg/mL (≈ 13 µM) in the assay on KB, 1.67 µM in assay [1], 0.75 µg/mL (≈ 2.71 µM) in assay [2] and 0.25 µg/mL (≈ 0.905 µM) with Jurkat.

Consider `COC(=O)C1=C2Nc3ccccc3[C@]23CCN2CC[C@H]1[C@H]([C@@H](C)OC)[C@@H]23`, for which the IC50 with KB is more than 25 µg/mL; in assay [1], 27.1 µM; in assay [2], more than 25 µg/mL; in the assay on Jurkat, more than 25 µg/mL.

As to `CC[C@]12CCCN3CC[C@]4(C(=C(C(=O)OC)C1)Nc1ccccc14)[C@@H]32` [VINCADIFFORMINE], the IC50 in the assay on KB turned out to be 10.2 µg/mL (≈ 30.1 µM); in assay [1] it was 13.3 µM; in assay [2], 6.3 µg/mL (≈ 18.6 µM); in the assay with Jurkat it was 21.8 µg/mL (≈ 64.4 µM).

In the case of `C/C=C1/CN2CCc3c([nH]c4ccccc34)[C@H]2C[C@@H]1C(C)=O` [ARBORICINE], the IC50 in the assay with KB was more than 25 µg/mL; in assay [1], 36.7 µM; in assay [2], more than 25 µg/mL; with Jurkat, more than 25 µg/mL.

`CC[C@]12CCCNC13/C(=C\C(=O)OC)c1ccccc1N3C(=O)CC2` (some centres not stated) [ARBOLOSCINE]: the IC50 stood at 15 µg/mL (≈ 44.1 µM) in the assay on KB, 11.2 µM in assay [1] and 11 µg/mL (≈ 32.3 µM) in assay [2].

In the case of `C/C=C1\[C@@H](C(C)=O)CCN2CCc3c([nH]c4ccccc34)[C@H]12` [ARBORICININE], the IC50 with KB is more than 25 µg/mL; in assay [1], 31.3 µM; in assay [2] it was more than 25 µg/mL; in the assay with Jurkat, more than 25 µg/mL.

For the compound `COC(=O)C1=C2Nc3ccccc3[C@]23CCN2CC[C@H]1[C@H]([C@H](C)OC)[C@@H]23`, the IC50 is more than 25 µg/mL in the assay with KB, 26.8 µM in assay [1], more than 25 µg/mL in assay [2] and more than 25 µg/mL in the assay on Jurkat.
